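Dose response: 5 concentrations. Exposure: 48 h. Format: 96-well plates. Endpoint: linear interpolation; highest concentration if not reached. TGI: concentration producing complete growth inhibition.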
What was measured:
Assay in all cases: NCI-60 cell line screen, 48 h
[1] = test system: HCC-2998 colon
[2] = test system: NCI-H522 lung
[3] = test system: LOX IMVI melanoma
[4] = test system: RXF 393 renal
[5] = test system: SF-295 CNS
[6] = test system: UACC-62 melanoma
[7] = test system: SK-MEL-28 melanoma
[8] = test system: MDA-MB-435
[9] = test system: M14 melanoma
[10] = test system: HT29 colon
[11] = test system: PC-3 prostate
[12] = test system: TK-10 renal
[13] = test system: BT-549 breast
[14] = test system: RPMI-8226 leukemia
[15] = test system: SK-MEL-5 melanoma
[16] = test system: OVCAR-4 ovarian
[17] = test system: CAKI-1 renal
[18] = test system: A498 renal
[19] = test system: SK-MEL-2 melanoma
[20] = test system: HCT-116 colon
[21] = test system: SNB-19 CNS
[22] = test system: UO-31 renal
[23] = test system: MALME-3M melanoma
[24] = test system: SF-539 CNS
[25] = test system: OVCAR-3 ovarian
[26] = test system: SN12C renal
[27] = test system: HCT-15 colon
[28] = test system: NCI/ADR-RES ovarian
[29] = test system: MDA-N
[30] = test system: A549 NSCLC
[31] = test system: HS 578T breast
[32] = test system: DU-145 prostate
[33] = test system: SK-OV-3 ovarian
[34] = test system: COLO 205 colon
[35] = test system: T-47D breast
[36] = test system: KM12 colon
[37] = test system: HOP-92 NSCLC
[38] = test system: NCI-H460 lung
[39] = test system: MOLT-4 leukemia
[40] = test system: SW-620 colon
[41] = test system: NCI-H226 lung
[42] = test system: UACC-257 melanoma
[43] = test system: CCRF-CEM leukemia
[44] = test system: SNB-75 CNS
[45] = test system: MCF7 breast
[46] = test system: IGROV1 ovarian
[47] = test system: K-562 leukemia
[48] = test system: SR leukemia
[49] = test system: 786-0 renal
[50] = test system: NCI-H23 lung
[51] = test system: U251 CNS
[52] = test system: SF-268 CNS
[53] = test system: ACHN renal
[54] = test system: MDA-MB-231 breast
[55] = test system: HOP-62 NSCLC
[56] = test system: OVCAR-5 ovarian
[57] = test system: OVCAR-8 ovarian
[58] = test system: HL-60(TB) leukemia
[59] = test system: EKVX NSCLC

Q: How did the TGI [1] turn out when COc1ccc(C(=O)c2sc(Nc3ccc(Cl)cc3)nc2N)cc1 was run?
A: Its TGI is 44.7 µM.

Q: What about the TGI [2] of the same compound?
A: The TGI was 33.9 µM.

Q: What about the TGI [3] of the same compound?
A: The TGI was over 100 µM.

Q: What about the TGI [4] of the same compound?
A: Its TGI is over 54 µM.

Q: And the TGI [5]?
A: Its TGI is 46.7 µM.

Q: What about the TGI [6] of the same compound?
A: The TGI was over 100 µM.

Q: And the TGI [7]?
A: Its TGI is over 100 µM.

Q: And the TGI [8]?
A: Its TGI is 7.35 µM.

Q: And the TGI [9]?
A: The TGI was over 100 µM.

Q: And the TGI [10]?
A: The TGI was over 64.9 µM.

Q: And the TGI [11]?
A: The TGI was over 68.3 µM.

Q: What about the TGI [12] of the same compound?
A: The TGI was 33.4 µM.

Q: And the TGI [13]?
A: Its TGI is over 100 µM.

Q: What about the TGI [14] of the same compound?
A: The TGI was over 43.5 µM.

Q: What about the TGI [15] of the same compound?
A: The TGI was over 100 µM.

Q: And the TGI [16]?
A: The TGI was over 61.4 µM.

Q: What about the TGI [17] of the same compound?
A: The TGI was 42.2 µM.

Q: And the TGI [18]?
A: Its TGI is over 75 µM.

Q: What about the TGI [19] of the same compound?
A: Its TGI is over 49.1 µM.

Q: And the TGI [20]?
A: Its TGI is over 34.4 µM.

Q: What about the TGI [21] of the same compound?
A: Its TGI is over 69.9 µM.

Q: What about the TGI [22] of the same compound?
A: The TGI was 97.7 µM.

Q: And the TGI [23]?
A: Its TGI is over 59.4 µM.

Q: What about the TGI [24] of the same compound?
A: The TGI was 66.2 µM.

Q: What about the TGI [25] of the same compound?
A: Its TGI is 35 µM.

Q: And the TGI [26]?
A: The TGI was over 62.8 µM.

Q: What about the TGI [27] of the same compound?
A: Its TGI is over 100 µM.

Q: And the TGI [28]?
A: The TGI was over 69.5 µM.

Q: And the TGI [29]?
A: Its TGI is over 22.2 µM.

Q: And the TGI [30]?
A: The TGI was over 59.6 µM.

Q: What about the TGI [31] of the same compound?
A: The TGI was 47.4 µM.

Q: What about the TGI [32] of the same compound?
A: The TGI was over 100 µM.

Q: What about the TGI [33] of the same compound?
A: Its TGI is 27.2 µM.

Q: And the TGI [34]?
A: The TGI was over 100 µM.

Q: What about the TGI [35] of the same compound?
A: Its TGI is over 100 µM.

Q: What about the TGI [36] of the same compound?
A: Its TGI is over 100 µM.

Q: And the TGI [37]?
A: The TGI was over 63.5 µM.

Q: What about the TGI [38] of the same compound?
A: Its TGI is 36.3 µM.

Q: And the TGI [39]?
A: Its TGI is over 71.4 µM.

Q: And the TGI [40]?
A: Its TGI is over 100 µM.

Q: What about the TGI [41] of the same compound?
A: Its TGI is over 100 µM.

Q: What about the TGI [42] of the same compound?
A: Its TGI is over 90.2 µM.

Q: And the TGI [43]?
A: Its TGI is 58.1 µM.

Q: And the TGI [44]?
A: Its TGI is 18.4 µM.

Q: What about the TGI [45] of the same compound?
A: The TGI was over 100 µM.

Q: What about the TGI [46] of the same compound?
A: Its TGI is over 53.9 µM.

Q: What about the TGI [47] of the same compound?
A: The TGI was over 100 µM.

Q: And the TGI [48]?
A: Its TGI is over 45.2 µM.

Q: And the TGI [49]?
A: Its TGI is 28.6 µM.

Q: And the TGI [50]?
A: Its TGI is over 51.6 µM.

Q: And the TGI [51]?
A: Its TGI is over 55.5 µM.

Q: What about the TGI [52] of the same compound?
A: The TGI was 43.3 µM.

Q: And the TGI [53]?
A: The TGI was over 87.7 µM.

Q: And the TGI [54]?
A: Its TGI is over 92.4 µM.

Q: And the TGI [55]?
A: Its TGI is 38.6 µM.

Q: And the TGI [56]?
A: Its TGI is over 100 µM.

Q: What about the TGI [57] of the same compound?
A: The TGI was over 100 µM.

Q: And the TGI [58]?
A: Its TGI is over 100 µM.

Q: What about the TGI [59] of the same compound?
A: The TGI was over 100 µM.

Q: CC1CC2OC(=O)C(C)C2CC2(C)C(OC3OC(CO)C(O)C(O)C3O)OCCC12 (configuration not stated) was tested. Which TGI [1] did it give?
A: Its TGI is over 100 µM.

Q: What about the TGI [2] of the same compound?
A: The TGI was over 100 µM.

Q: And the TGI [3]?
A: Its TGI is over 100 µM.

Q: What about the TGI [4] of the same compound?
A: Its TGI is over 100 µM.

Q: And the TGI [5]?
A: The TGI was over 100 µM.

Q: And the TGI [6]?
A: The TGI was 30.6 µM.

Q: And the TGI [7]?
A: The TGI was over 100 µM.

Q: What about the TGI [8] of the same compound?
A: The TGI was over 100 µM.

Q: And the TGI [9]?
A: Its TGI is over 100 µM.

Q: And the TGI [10]?
A: Its TGI is over 100 µM.

Q: And the TGI [11]?
A: The TGI was over 100 µM.

Q: And the TGI [12]?
A: The TGI was over 100 µM.

Q: And the TGI [13]?
A: The TGI was 29.4 µM.

Q: What about the TGI [14] of the same compound?
A: The TGI was over 100 µM.

Q: What about the TGI [15] of the same compound?
A: The TGI was over 100 µM.

Q: What about the TGI [16] of the same compound?
A: Its TGI is over 100 µM.

Q: What about the TGI [17] of the same compound?
A: Its TGI is over 100 µM.

Q: And the TGI [18]?
A: The TGI was over 100 µM.

Q: And the TGI [19]?
A: Its TGI is over 100 µM.

Q: And the TGI [20]?
A: Its TGI is over 100 µM.

Q: What about the TGI [21] of the same compound?
A: The TGI was over 100 µM.

Q: What about the TGI [23] of the same compound?
A: The TGI was over 100 µM.

Q: And the TGI [24]?
A: The TGI was over 100 µM.

Q: And the TGI [25]?
A: The TGI was over 100 µM.

Q: And the TGI [26]?
A: The TGI was over 100 µM.

Q: What about the TGI [27] of the same compound?
A: The TGI was over 100 µM.

Q: What about the TGI [28] of the same compound?
A: Its TGI is over 100 µM.

Q: What about the TGI [29] of the same compound?
A: Its TGI is over 100 µM.

Q: What about the TGI [30] of the same compound?
A: The TGI was over 100 µM.

Q: And the TGI [31]?
A: Its TGI is over 100 µM.

Q: What about the TGI [32] of the same compound?
A: Its TGI is over 100 µM.

Q: And the TGI [33]?
A: The TGI was over 100 µM.

Q: And the TGI [34]?
A: Its TGI is over 100 µM.

Q: What about the TGI [35] of the same compound?
A: The TGI was over 100 µM.

Q: And the TGI [36]?
A: Its TGI is over 100 µM.

Q: What about the TGI [37] of the same compound?
A: Its TGI is over 100 µM.

Q: And the TGI [38]?
A: The TGI was over 100 µM.

Q: What about the TGI [39] of the same compound?
A: The TGI was over 100 µM.

Q: And the TGI [40]?
A: Its TGI is over 100 µM.

Q: What about the TGI [41] of the same compound?
A: Its TGI is over 100 µM.

Q: And the TGI [42]?
A: The TGI was over 100 µM.

Q: What about the TGI [43] of the same compound?
A: Its TGI is over 100 µM.

Q: What about the TGI [44] of the same compound?
A: The TGI was over 100 µM.

Q: What about the TGI [45] of the same compound?
A: The TGI was over 100 µM.

Q: What about the TGI [46] of the same compound?
A: Its TGI is over 100 µM.

Q: And the TGI [47]?
A: The TGI was over 100 µM.

Q: And the TGI [48]?
A: The TGI was over 100 µM.

Q: What about the TGI [49] of the same compound?
A: Its TGI is over 100 µM.

Q: And the TGI [50]?
A: The TGI was over 100 µM.

Q: And the TGI [51]?
A: Its TGI is over 100 µM.

Q: And the TGI [52]?
A: Its TGI is over 100 µM.

Q: What about the TGI [53] of the same compound?
A: Its TGI is over 100 µM.

Q: What about the TGI [54] of the same compound?
A: The TGI was over 100 µM.

Q: What about the TGI [55] of the same compound?
A: Its TGI is over 100 µM.

Q: What about the TGI [56] of the same compound?
A: Its TGI is over 100 µM.

Q: What about the TGI [57] of the same compound?
A: Its TGI is over 100 µM.

Q: What about the TGI [58] of the same compound?
A: Its TGI is over 100 µM.

Q: And the TGI [59]?
A: The TGI was over 100 µM.

From PubChem BioAssay (NCI)
